# Test results as given in ChEMBL document CHEMBL5236610, “A Comprehensive Overview of Small-Molecule Androgen Receptor Degraders: Recent Progress and Future Perspectives” (J Med Chem, 2022).
# Columns and labels:
# [1] = biological target: T1, Androgen receptor (Homo sapiens, UniProt P10275); assay: Inhibition of Androgen receptor (unknown origin)
# T1 sequence (P10275 whole entry): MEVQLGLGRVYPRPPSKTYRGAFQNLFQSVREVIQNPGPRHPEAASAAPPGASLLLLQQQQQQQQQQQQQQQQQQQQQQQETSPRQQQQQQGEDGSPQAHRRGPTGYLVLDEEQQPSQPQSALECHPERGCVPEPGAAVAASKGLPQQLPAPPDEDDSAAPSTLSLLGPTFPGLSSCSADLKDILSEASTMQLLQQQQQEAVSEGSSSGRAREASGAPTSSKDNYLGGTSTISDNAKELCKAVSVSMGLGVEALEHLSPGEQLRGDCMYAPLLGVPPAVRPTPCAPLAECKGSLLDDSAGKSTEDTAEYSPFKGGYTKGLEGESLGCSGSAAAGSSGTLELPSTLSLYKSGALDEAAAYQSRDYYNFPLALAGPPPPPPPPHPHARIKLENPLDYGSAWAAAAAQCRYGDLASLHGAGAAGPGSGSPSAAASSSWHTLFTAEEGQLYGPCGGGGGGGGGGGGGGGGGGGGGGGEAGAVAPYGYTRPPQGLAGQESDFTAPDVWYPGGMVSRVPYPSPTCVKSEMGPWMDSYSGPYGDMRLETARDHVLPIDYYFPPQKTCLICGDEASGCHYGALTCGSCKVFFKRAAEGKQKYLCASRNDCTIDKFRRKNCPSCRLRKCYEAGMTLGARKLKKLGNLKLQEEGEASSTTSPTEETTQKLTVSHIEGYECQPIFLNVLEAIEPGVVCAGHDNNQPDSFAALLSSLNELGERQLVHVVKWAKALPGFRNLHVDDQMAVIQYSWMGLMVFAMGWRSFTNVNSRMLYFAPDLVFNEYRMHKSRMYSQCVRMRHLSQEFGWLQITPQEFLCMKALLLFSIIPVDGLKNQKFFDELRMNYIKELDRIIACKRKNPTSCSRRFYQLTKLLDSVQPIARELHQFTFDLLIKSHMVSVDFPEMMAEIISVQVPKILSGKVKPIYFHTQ
# [2] = test system: LNCaP; assay: Antitumor activity against human LNCaP cells xenografted in nude mouse assessed as decrease in tumor weight at 40 mg/kg via oral gavage for six days weekly for 70 days relative to control; assay type: functional; parameters: scale not given: the % may be the effect or the level left; conditions: time 70 day
# [3] = test system: LNCaP; assay: Antitumor activity against human LNCap cells xenografted in NSG mouse assessed as tumor growth inhibition at 100 mg/kg, sc relative to control; assay type: functional; conditions: read-out: TGI
# [4] = in vitro; conditions: mouse, liver microsomes
# Description: Metabolic stability in mouse liver microsomes assessed as half life by LC-MS/MS analysis
# [5] = biological target: T2, von Hippel-Lindau disease tumor suppressor/Androgen receptor (Homo sapiens, UniProt P10275+P40337); assay: PROTAC activity at VHL/AR-V7 in human 22Rv1 cells assessed as induction of AR-V7 degradation incubated for 24 hrs by immunoblot assay; assay type: cell-based
# Target sequence in this assay (P40337 whole entry, looked up, change not shown, one chain of several): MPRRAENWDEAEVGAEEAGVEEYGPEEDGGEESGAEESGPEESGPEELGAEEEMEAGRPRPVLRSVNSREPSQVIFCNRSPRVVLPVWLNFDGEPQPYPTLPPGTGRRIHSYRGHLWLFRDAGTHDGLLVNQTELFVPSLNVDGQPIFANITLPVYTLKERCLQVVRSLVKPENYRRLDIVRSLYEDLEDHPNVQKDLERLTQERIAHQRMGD
# [6] = biological target: T2, von Hippel-Lindau disease tumor suppressor/Androgen receptor; assay: PROTAC activity at VHL/full length AR in human 22Rv1 cells assessed as induction of AR degradation incubated for 24 hrs by immunoblot assay; assay type: cell-based
# Target sequence in this assay (P40337 whole entry, one chain of several): as the sequence (P40337 whole entry, looked up, change not shown, one chain of several) above
# [7] = biological target: T1, Androgen receptor; assay: Inhibition of AR LBD in human LNCaP cells; assay type: cell-based
# [8] = biological target: T1, Androgen receptor; assay: Induction of degradation of AR LBD in human LNCaP cells; assay type: cell-based
# [9] = Downregulation of AR-Vs level in human CWR22Rv cells at 10 uM by Western blot analysis relative to control; assay type: functional
# [10] = Downregulation of AR-Vs level in human LNCaP cells at 10 uM by Western blot analysis relative to control; assay type: functional
# [11] = Antitumor activity in human CWR22rv cells xenografted NOD.CB17-PrkdcSCID/J mouse model assessed as inhibition of tumor growth at 10 mg/kg, ip relative to control; assay type: functional; parameters: scale not given: the % may be the effect or the level left
# [12] = Downregulation of AR level in human LNCaP cells at 10 uM by Western blot analysis relative to control; assay type: functional
# [13] = Downregulation of AR level in human CWR22Rv cells at 10 uM by Western blot analysis relative to control; assay type: functional
# [14] = test system: VCaP; assay: Antiproliferative activity against human VCaP cells incubated for 168 hrs by […] assay; assay type: functional, cell-based
# [15] = test system: LNCaP; assay: Antiproliferative activity against human LNCap cells incubated for 168 hrs by […] assay; assay type: functional, cell-based
# [16] = test system: CWR22R; assay: Antiproliferative activity against human 22Rv1 cells assessed as reduction in cell viability; assay type: functional, cell-based
# [17] = test system: LNCaP; assay: Antiproliferative activity against human LNCAP cells assessed as reduction in cell viability; assay type: functional, cell-based
# [18] = biological target: Protein cereblon/Androgen receptor (Homo sapiens, UniProt P10275+Q96SW2); assay: Protac activity at CRBN/Androgen receptor in human LNCaP cells assessed as Androgen receptor degradation incubated for 24 hrs; assay type: cell-based
# [19] = test system: CWR22R; assay: Antitumor activity against human 22Rv1 cells xenografted in BALB/c nude mouse assessed as reduction in tumor volume at 10 mg/kg administered daily by vernier caliper method relative control; assay type: functional; parameters: scale not given: the % may be the effect or the level left
# [20] = test system: LNCaP C4-2B; assay: Antiproliferative activity against human C4-2B cells; assay type: functional, cell-based
# [21] = test system: PC-3; assay: Antitumor activity against human PC-3 cells xenografted in mouse assessed as reduction in tumor at 50 mg/kg in presence of bicalutamide relative to control; assay type: functional; parameters: scale not given: the % may be the effect or the level left
# [22] = test system: CWR22R; assay: Antiproliferative activity against human 22Rv1 cells; assay type: functional, cell-based
# [23] = test system: PC-3; assay: Antiproliferative activity against human PC-3 cells; assay type: functional, cell-based
# [24] = test system: LNCaP C4-2B; assay: Antiproliferative activity against human LNCaP C4-2B cells; assay type: functional, cell-based
# [25] = test system: LNCaP; assay: Antiproliferative activity against human LNCap cells; assay type: functional, cell-based
# [26] = test system: CWR22R; assay: Antitumor activity against human 22rv1 cells xenografted in mouse assessed as suppression of tumor growth at 100 mg/kg, po administered daily for 25 days relative to control; assay type: functional; conditions: time 25 day
# [27] = biological target: T3, Steroid 17-alpha-hydroxylase/17,20 lyase (Homo sapiens, UniProt P05093); assay: Inhibition of CYP17AI in human 22Rv1 cells; assay type: ADME, cell-based
# T3 sequence (P05093 whole entry): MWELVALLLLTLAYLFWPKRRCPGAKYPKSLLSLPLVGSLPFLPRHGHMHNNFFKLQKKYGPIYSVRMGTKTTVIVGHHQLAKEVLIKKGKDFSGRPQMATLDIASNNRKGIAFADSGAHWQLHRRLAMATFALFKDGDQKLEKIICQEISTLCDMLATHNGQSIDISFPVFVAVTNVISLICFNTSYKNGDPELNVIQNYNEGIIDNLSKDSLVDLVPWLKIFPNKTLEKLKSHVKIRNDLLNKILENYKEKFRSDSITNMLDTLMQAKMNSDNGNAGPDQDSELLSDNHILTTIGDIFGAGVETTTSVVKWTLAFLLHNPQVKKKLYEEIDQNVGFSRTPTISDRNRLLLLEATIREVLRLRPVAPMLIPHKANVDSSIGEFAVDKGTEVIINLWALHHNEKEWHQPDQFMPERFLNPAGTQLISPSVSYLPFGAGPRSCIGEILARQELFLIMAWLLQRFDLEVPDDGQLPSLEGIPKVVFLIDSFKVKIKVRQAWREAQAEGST
# [28] = biological target: T3, Steroid 17-alpha-hydroxylase/17,20 lyase; assay: Inhibition of CYP17AI in human LNCaP cells; assay type: ADME, cell-based
# [29] = test system: LNCaP C4-2; assay: Antiproliferative activity against human C4-2 cells incubated for 24 hrs by CCK-8 assay; assay type: functional, cell-based; conditions: LNCaP C4-2, 24 h
# [30] = test system: PC-3; assay: Antiproliferative activity against human PC-3 cells incubated for 24 hrs by CCK-8 assay; assay type: functional, cell-based; conditions: PC-3, 24 h
# [31] = test system: DU-145; assay: Antiproliferative activity against human DU-145 cells incubated for 24 hrs by CCK-8 assay; assay type: functional, cell-based; conditions: DU-145, 24 h
# [32] = test system: CWR22R; assay: Antiproliferative activity against human 22Rv1 cells incubated for 24 hrs by CCK-8 assay; assay type: functional, cell-based; conditions: 22Rv1, 24 h
# Chain of Protein cereblon/Androgen receptor (Q96SW2 whole entry, one chain of several): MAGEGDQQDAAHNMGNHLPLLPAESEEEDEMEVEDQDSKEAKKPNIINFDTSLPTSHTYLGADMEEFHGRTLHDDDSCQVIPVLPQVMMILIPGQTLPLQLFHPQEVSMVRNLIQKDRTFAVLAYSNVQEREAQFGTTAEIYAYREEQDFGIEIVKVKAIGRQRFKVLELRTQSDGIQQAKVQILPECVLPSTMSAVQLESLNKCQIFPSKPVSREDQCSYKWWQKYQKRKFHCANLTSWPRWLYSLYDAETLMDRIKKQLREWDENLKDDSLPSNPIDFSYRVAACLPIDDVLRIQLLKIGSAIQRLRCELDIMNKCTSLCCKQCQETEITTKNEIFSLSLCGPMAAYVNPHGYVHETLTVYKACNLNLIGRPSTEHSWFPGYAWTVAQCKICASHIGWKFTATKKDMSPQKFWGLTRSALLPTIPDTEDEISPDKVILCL
smiles,measurement,setting,value
Clc1ccc(-c2cnc3n2CCC3)cc1,IC50,[1],4.3 µM
CC(C)=CCC[C@](C)(O)[C@H]1CC[C@]2(C)[C@@H]1[C@H](O)C[C@@H]1[C@@]3(C)CC[C@H](O)C(C)(C)[C@@H]3CC[C@]12C,Activity,[2],32.6%
C[C@](O)(Cn1ccc2cc(F)ccc21)C(=O)Nc1ccc(C#N)c(C(F)(F)F)c1,inhibition in vivo at 100 mg/kg,[3],65%
CN(C[C@](C)(O)C(=O)Nc1ccc(C#N)c(C(F)(F)F)c1)c1ccc(C#N)c(-c2ccccc2)c1,half-life,[4],1 min
Cc1ncsc1-c1ccc([C@H](C)NC(=O)[C@@H]2C[C@@H](O)CN2C(=O)[C@@H](NC(=O)CCCCNC(=O)COc2c(-c3csc(N4CCOCC4)n3)ccc(F)c2F)C(C)(C)C)cc1,EC50,[5],0.37 µM
same,EC50,[6],2 µM
CC1(C)C(=O)N(c2ccc(C#N)c(C(F)(F)F)c2)C(=S)N1CCCC(=O)NCCOCCOC(=O)CC12CC3CC(CC(C3)C1)C2,IC50,[7],0.156 µM
same,EC50,[8],1 µM
CCOc1ccc2c(c1OC(C)C)CCN(c1ccc(C(=O)Nc3cccc(C)n3)cn1)C2,Activity,[9],>90%
same,Activity,[10],>90%
same,Activity,[11],65%
same,Activity,[12],>90%
same,Activity,[13],>90%
CC1(C)C(=O)N(c2ccc(C#N)c(C(F)(F)F)c2)C(=S)N1CCCCOc1cccc2c1C(=O)N(C1CCC(=O)NC1=O)C2=O (configuration not stated),IC50,[14],0.127 µM
same,IC50,[15],3.07 µM
CC1(C)CC(NC(=O)[C@H](Cc2ccc(OCc3c(Cl)cccc3Cl)cc2)NC(=O)/C(=C\c2ccccc2)c2ccccc2)CC(C)(C)N1,IC50,[16],2.6 µM
same,IC50,[17],3 µM
CC(O)(COc1ccc(OCCOCCOc2cccc3c2C(=O)N(C2CCC(=O)NC2=O)C3=O)cc1)C(=O)Nc1ccc(C#N)c(I)c1 (configuration not stated),EC50,[18],5.21 µM
COc1ccc(-n2nc3ccc(NC(=O)CO[N+](=O)[O-])cc3n2)cc1,Activity,[19],82%
COc1ccc(C(=O)n2c(C)cc3cc(Cl)ccc32)cc1,IC50,[20],1.09 µM
C[C@H]1[C@H](OC(=O)CCC(=O)O)O[C@@H]2O[C@@]3(C)CC[C@H]4[C@H](C)CC[C@@H]1[C@@]24OO3 [ARTESUNATE],Activity,[21],>95%
COc1ccc2cc3[n+](cc2c1OC)CCc1cc2c(cc1-3)OCO2 [BERBERINE],IC50,[22],12.7 µM
same,IC50,[23],21.5 µM
same,IC50,[24],11.2 µM
same,IC50,[25],3.4 µM
CC(C)c1cc2c(c(O)c1O)[C@@]1(C(=O)O)CCCC(C)(C)[C@@H]1CC2 [CARNOSIC ACID],Activity,[26],53%
C[C@]12CC[C@H](O)CC1=CC[C@@H]1[C@@H]2CC[C@]2(C)C(n3cnc4ccccc43)=CC[C@@H]12 [GALETERONE],IC50,[27],0.0122 µM
same,IC50,[28],3.55 µM
COc1ccc(-c2cc(=O)c3c(OC)c(OC)c(OC)c(OC)c3o2)cc1OC [NOBILETIN],IC50,[29],30.3 µM
same,IC50,[30],123 µM
same,IC50,[31],144 µM
same,IC50,[32],36.5 µM
